Measurements taken from patent US20100286173A1 (priority 2008, published 2010).

assay: Measurement of logP values by HPLC on reversed phase columns (EEC directive 79/831 Annex V.A8); format: physicochemical; conditions: pH 2.7, 0.1% formic acid in water / acetonitrile gradient 10% to 95%

`CCCCCC(=O)Nc1cccc(CON=C(c2cc(C)ccc2F)c2nnnn2C)n1` [Example 100] and `CCCCCC(=O)Nc1cccc(CON=C(c2ccc(C)cc2F)c2nnnn2C)n1` [Example 115] are the same in logp: 3.92 for the first, 3.92 for the second.

First: CC#CCOC(=O)Nc1cccc(CON=C(c2ccc(F)c(C)c2)c2nnnn2C)n1 [Example 101]
Second: CCCCCC(=O)Nc1cccc(CON=C(c2ccc(F)c(C)c2)c2nnnn2C)n1 [Example 119]
The logp of the first is lower: 3.67 for the first, 4.11 for the second.

`CCCCCC(=O)Nc1cccc(CON=C(c2cccc(C)c2F)c2nnnn2C)n1` [Example 103] and `CCCCCC(=O)Nc1cccc(CON=C(c2cccc(F)c2C)c2nnnn2C)n1` [Example 112] are the same in logp: 3.96 for the first, 3.96 for the second.

First: CCCCCC(=O)Nc1cccc(CON=C(c2ccc(F)c(C(F)(F)F)c2)c2nnnn2C)n1 [Example 104]
Second: CCCCCC(=O)Nc1cccc(CON=C(c2ccc(C)c(C(F)(F)F)c2)c2nnnn2C)n1 [Example 118]
The logp of the first is lower: 4.36 for the first, 4.56 for the second.

`CCCCCC(=O)Nc1cccc(CON=C(c2cc(C(F)(F)F)ccc2Cl)c2nnnn2C)n1` [Example 106] and `CCCCCC(=O)Nc1cccc(CON=C(c2cc(C(F)(F)F)ccc2C)c2nnnn2C)n1` [Example 111] are within 0.2 log units of each other in logp: 4.39 for the first, 4.34 for the second.

First: CCCCCC(=O)Nc1cccc(CON=C(c2ccc(C(F)(F)F)c(Cl)c2)c2nnnn2C)n1 [Example 107]
Second: CCCCCC(=O)Nc1cccc(CON=C(c2cc(C)cc(F)c2)c2nnnn2C)n1 [Example 123]
The logp of the first is higher: 4.7 for the first, 4.14 for the second.

Going from `CCCCCOC(=O)Nc1cccc(CON=C(c2cc(C)ccc2F)c2nnnn2C)n1` [Example 121] to `CCCCCOC(=O)Nc1ccnc(CON=C(c2ccc(C)c(C(F)(F)F)c2)c2nnnn2C)n1` [Example 122], the logp rises from 4.19 to 4.59.

`Cc1ccc(C(F)(F)F)cc1C(=NOCc1cccc(N)n1)c1nnnn1C` [Example 124] and `Cc1ccc(C(F)(F)F)cc1C(=NOCc1csc(N)n1)c1nnnn1C` [Example 130] are within 0.2 log units of each other in logp: 1.73 for the first, 1.92 for the second.

`Cc1cc(C)cc(C(=NOCc2cccc(N)n2)c2nnnn2C)c1` [Example 125] and `Cn1nnnc1C(=NOCc1cccc(N)n1)c1cc(F)cc(C(F)(F)F)c1` [Example 127] are within 0.2 log units of each other in logp: 1.81 for the first, 1.75 for the second.

`Cc1nc(N)cc(CON=C(c2ccc(F)c(Oc3ccccc3)c2)c2nnnn2C)n1` [Example 129] and `Cc1ccc(F)c(C(=NOCc2csc(N)n2)c2nnnn2C)c1` [Example 132] are within 0.2 log units of each other in logp: 1.75 for the first, 1.65 for the second.

`Cn1nnnc1C(=NOCc1csc(N)n1)c1cc(F)cc(C(F)(F)F)c1` [Example 131] gave a logp of 2.14.

`Cn1nnnc1C(=NOCc1cccc(N)n1)c1cc(C(F)(F)F)ccc1Cl` [Example 133] and `Cn1nnnc1C(=NOCc1cccc(N)n1)c1ccc(C(F)(F)F)c(Cl)c1` [Example 134] are within 0.2 log units of each other in Log p: 1.72 for the first, 1.9 for the second.

`Cc1cc(F)cc(C(=NOCc2cccc(N)n2)c2nnnn2C)c1` [Example 135] and `Cc1ccc(C(=NOCc2cccc(N)n2)c2nnnn2C)cc1F` [Example 137] are within 0.2 log units of each other in Log p: 1.46 for the first, 1.52 for the second.

`Cc1ccc(F)c(C(=NOCc2cccc(N)n2)c2nnnn2C)c1` [Example 136] and `Cc1cc(C(=NOCc2cccc(N)n2)c2nnnn2C)ccc1F` [Example 159] are within 0.2 log units of each other in Log p: 1.4 for the first, 1.50 for the second.

Going from `Cc1cccc(C(=NOCc2cccc(N)n2)c2nnnn2C)c1F` [Example 138] to `Cc1ccc(C(=NOCc2cccc(N)n2)c2nnnn2C)cc1C(F)(F)F` [Example 162], the Log p rises from 1.42 to 2.10.

Compared with `Cc1nc(N)cc(CON=C(c2ccc(F)c(Oc3ccccc3)c2)c2nnn(C)n2)n1` [Example 139], `Cn1nnc(C(=NOCc2csc(N)n2)c2ccc(F)c(Oc3ccccc3)c2)n1` [Example 140] is higher in Log p: 1.73 for the first, 2.23 for the second.

First: CCCC(=O)Nc1nc(CON=C(c2ccc(F)c(Oc3ccccc3)c2)c2nnnn2C)cs1 [Example 146]
Second: Cn1nnnc1C(=NOCc1csc(NC(=O)C(C)(C)C)n1)c1ccc(F)c(Oc2ccccc2)c1 [Example 147]
The Log p of the first is lower: 3.35 for the first, 4.05 for the second.

First: Cn1nnnc1C(=NOCc1csc(NC(=O)C2CC2)n1)c1ccc(F)c(Oc2ccccc2)c1 [Example 148]
Second: Cn1nnnc1C(=NOCc1csc(N)n1)c1ccc(F)c(Oc2ccccc2)c1 [Example 149]
The Log p of the first is higher: 3.48 for the first, 2.25 for the second.

Compared with `Cc1cc(C(=NOCc2csc(NCCC3CCCCC3)n2)c2nnnn2C)ccc1F` [Example 151], `Cc1cc(C(=NOCc2csc(N)n2)c2nnnn2C)ccc1F` [Example 163] is lower in Log p: 4.36 for the first, 1.75 for the second.

Compared with `CCCCC#Cc1nc(CON=C(c2ccc(F)c(C)c2)c2nnnn2C)cs1` [Example 152], `CCC#Cc1nc(CON=C(c2ccc(F)c(C)c2)c2nnnn2C)cs1` [Example 156] is lower in Log p: 4.78 for the first, 4.09 for the second.

Work on `Cc1cc(C(=NOCc2csc(C#CCCCc3ccccc3)n2)c2nnnn2C)ccc1F` [Example 155] yielded a Log p of 5.32.

same assay, conditions: reversed phase HPLC column, pH 2.7, 0.1% formic acid in water / acetonitrile gradient 10% to 95%

With `Cc1ccc(C(=NOCc2nccc(N)n2)c2nnnn2C)cc1C(F)(F)F` [Example 128, 2-{[({(1-methyl-1H-tetrazol-5-yl)[4-methyl-3-(trifluoromethyl)phenyl]methylidene}amino)oxy]methyl}pyrimidin-4-amine] the chromatographic logP was 1.7.

same assay, conditions: reversed phase HPLC column, pH 2.7, 0.1% formic acid in water / acetonitrile gradient 10% to 95%, read-out: Log p

First: Cn1nnnc1C(=NOCc1cccc(N)n1)c1cccc(C(F)(F)F)c1F [Example 143, 6-{[({[2-fluoro-3-(trifluoromethyl)phenyl](1-methyl-1H-tetrazol-5-yl)methylidene}amino)oxy]methyl}pyridin-2-amine]
Second: Cc1ccc(C(=NOCc2csc(N)n2)c2nnnn2C)cc1C(F)(F)F [Example 145, 4-{[({(1-methyl-1H-tetrazol-5-yl)[4-methyl-3-(trifluoromethyl)phenyl]methylidene}amino)oxy]methyl}-1,3-thiazol-2-amine]
The chromatographic logP of the first is lower: 1.75 for the first, 2.22 for the second.

Compared with `Cc1cc(C(=NOCc2csc(NC(=O)OC(C)(C)C)n2)c2nnnn2C)ccc1F` [Example 150, tert-butyl {4-[({[(4-fluoro-3-methylphenyl)(1-methyl-1H-tetrazol-5-yl)methylidene]amino}oxy)methyl]-1,3-thiazol-2-yl}carbamate], `Cc1cc(C(=NOCc2csc(NCC3CC3)n2)c2nnnn2C)ccc1F` [Example 154, N-(cyclopropylmethyl)-4-[({[(4-fluoro-3-methylphenyl)(1-methyl-1H-tetrazol-5-yl)methylidene]amino}oxy)methyl]-1,3-thiazol-2-amine] is lower in chromatographic logP: 3.89 for the first, 2.71 for the second.

Going from `CCCC#Cc1nc(CON=C(c2ccc(F)c(C)c2)c2nnnn2C)cs1` [Example 153, 1-(4-fluoro-3-methylphenyl)-1-(1-methyl-1H-tetrazol-5-yl)-N-{[2-(pent-1-yn-1-yl)-1,3-thiazol-4-yl]methoxy}methanimine] to `Cc1cc(C(=NOCc2csc(Br)n2)c2nnnn2C)ccc1F` [Example 161, N-[(2-bromo-1,3-thiazol-4-yl)methoxy]-1-(4-fluoro-3-methylphenyl)-1-(1-methyl-1H-tetrazol-5-yl)methanimine], the chromatographic logP falls from 4.36 to 3.57.
